From patent US10189826B2, “Heterocyclic compounds and methods of use” (Medivation Technologies LLC, priority 2015, dated 2019)
Read-outs that look alike come from different tables or passages of the source.

Key:
[1] = tested on: SREBP-2 transcriptional activity (SREBP2 cleavage) in HepG2_LSSprom cells; assay: Luciferase reporter driven by a SREBP-2 specific promoter in HepG2_LSSprom cells; assay type: cell-based
Procedure: Dose response effects were measured of Compounds on the transcriptional activity of a Luciferase reporter driven by a SREBP-2 specific promoter in HepG2_LSSprom cells.
(§1) HepG2_LSSprom cells (SwitchGear Genomics, cat# C711010L) were cultured in DMEM with 10% of fetal bovine serum (FBS), supplemented with Puromycin (1 μg/mL), 1% Penicillin/Streptomycin (Pen-Strep), 37° C., humidified, 95% air and 5% CO2. Culture media was refreshed every 2 or 3 days. Cells were used between passage number 6-12.
For luminescence assays, cells were plated out at 20,000 cells/well in white 96 well plates in DMEM plus 10% FBS and 1% Pen-Strep without puromycin. After 1 day, cells were treated with Compound by diluting the drug in culture medium without FBS to a final concentration of 0.625, 1.25, 2.5, 3.75, 5 and 10 μM. Drug was prepared by dilutions of 10 mM stock aliquots. As control was used culture medium without FBS plus DMSO. Treatments with Compound were maintained for 6 h, or 24 h, until the luciferase assay was carried out.
After 6 h of treatments with Compound, the luciferase assay was performed. Briefly, the assay solution (buffer+substrate) was prepare just prior to use. To each well 100 μL of assay solution was added. The 96-well plate was then gently mix for 2 min and incubated for 30 min at RT protected from light. The luminescence was read using a Synergy 4 (Biotek) equipment recording luminescence with sensibility set up at 150.
(§2) Five independent experiments were carried out for both luciferase and cytotoxicity assay. In each experiment, three wells were use per condition and the results are represented as means±SEM.
For luciferase assay, Vehicle (no treatment) was taken as 100% of luciferase activity. This value represents the SREBP-2 transcriptional activity for the vehicle condition and was taken as 100% of SREBP-2 cleaved. The percentage for each treatment was calculated normalizing against the vehicle control. The graphics were made using the GraphPad Prism ver. 6.05 software. Half of maximal inhibitory concentration (IC50) of the effect of Compound on SREBP was obtain by nonlinear fit regression of mean normalized values vs. Compound concentration using the log(inhibitor) vs. response−Variable slope (four parameters) tool.

[2] = Cytotoxicity assay (LDH release) in HepG2_LSSprom cells; assay type: cell-based; details: human, HepG2 LSSprom cells, LDH release; for IC50 at 24 h: 24 h treatment; for IC50 at 6 h: 6 h treatment
Procedure: as §1
For cytotoxicity assays, cells were plated out at 20,000 cells/well in transparent 96 well plates in DMEM plus 10% FBS and 1% Pen-Strep without puromycin. After 1 day, cells were treated with Compound by diluting in culture medium without FBS to a final concentration of 0.625, 1.25, 2.5, 3.75, 5 and 10 μM. Compound was prepared by dilutions of 10 mM stock aliquots. As a negative control culture medium was used without FBS plus DMSO. As maximum LDH release control (Lysis control) a lysis buffer provided by the kit manufacturer was used. Treatments with Compound were maintained for 6 h, or 24 h, in cell culture medium without serum until the cytotoxicity assay was started.
The cytotoxicity assay was performed according to the manufacturer's instructions. As maximum LDH release control (Lysis control) 3 wells per plate were treated with 10 μL of lysis buffer 45 min before the treatment was over. Briefly, after the 6 h, or 24 h, of treatment, 50 μL of media from each well was transferred to a new 96-well plate. To the transferred media, 50 μL of reconstituted substrate mix was added. The plates were covered from light and incubated at RT for 10 min. Then, 50 μL of stop solution was added to each well. The plates were then read using a Synergy 4 (Biotek) equipment recording the absorbance at 490 nm.
as §2
For cytotoxicity assay, Lysis control was taken as 100%/o of LDH release. The vehicle values were taken as basal LDH release and were subtracted to all the treatments (including vehicle itself) having this value as 0% of LDH release. The LDH release for the treatments was calculated respect to the 100% of LDH release of Lysis control normalized against vehicle. All the negatives values were taken as 0% of cytotoxicity. The graphics were made using the Graph Prism ver. 6.05 software.

[3] = 24 h, 24 h treatment, HepG2_LSSprom cells, read-out: SREBP2 Cleavage (IC50 μM) 24 h
[4] = 6 h, 6 h treatment, HepG2_LSSprom cells, read-out: SREBP2 Cleavage (IC50 μM) 6 h

Row | IC50 [1, 3] | IC50 [1, 4] | Structure (SMILES) | IC50 at 24 h [2] | other results
1 | 0.99 µM |  | CC(C)(C)c1cc(-c2cc(-c3ccc(C(=O)N4CCCC(NS(C)(=O)=O)C4)cc3Cl)cs2)ccn1 (racemic) [Compound 31, N-(1-{4-[5-(2-tert-butylpyridin-4-yl)thiophen-3-yl]-3-chlorobenzoyl}piperidin-3-yl)methanesulfonamide] | > 10 µM | 
2 | 0.85 µM |  | CC(C)(C)c1cc(-c2cc(-c3ccc(C(=O)N4CCCC(N5CCCC5=O)C4)cc3Cl)cs2)ccn1 (racemic) [Compound 34, 1-(1-{4-[5-(2-tert-butylpyridin-4-yl)thiophen-3-yl]-3-chlorobenzoyl}piperidin-3-yl) pyrrolidin-2-one] | > 10 µM | 
3 | 0.49 µM |  | CC(C)(C)c1cc(-c2cc(-c3ccc(C(=O)N4CCCC(N5CCCS5(=O)=O)C4)cc3Cl)cs2)ccn1 (racemic) [Compound 36, 2-(1-{4-[5-(2-tert-butylpyridin-4-yl)thiophen-3-yl]-3-chlorobenzoyl}piperidin-3-yl)-1λ^6,2-thiazolidine-1,1-dione] | > 10 µM | 
4 | > 1 µM |  | CC(C)(C)c1cc(-c2cc(-c3ccc(C(=O)N4CCNC(=O)C4)cc3Cl)cs2)ccn1 [Compound 7, 4-{4-[5-(2-tert-butylpyridin-4-yl)thiophen-3-yl]-3-chlorobenzoyl}piperazin-2-one] | > 3 µM | 
5 |  | 3.17 µM | CC(C)(C)c1cc(-c2cc(-c3ccc(C(=O)NC4CC4)cc3Cl)cs2)ccn1 [Compound 14, 4-[5-(2-tert-butylpyridin-4-yl)thiophen-3-yl]-3-chloro-N-cyclopropylbenzamide] |  | 
6 |  | > 5 µM | CC(C)(C)NC(=O)c1ccc(-c2csc(-c3ccnc(C(C)(C)C)c3)c2)c(Cl)c1 [Compound 15, N-tert-butyl-4-[5-(2-tert-butylpyridin-4-yl)thiophen-3-yl]-3-chlorobenzamide] |  | 
7 | > 3 µM |  | CC(C)(C)c1cc(-c2cc(-c3ccc(C(=O)N4CCS(=O)(=O)CC4)cc3Cl)cs2)ccn1 [Compound 20, 4-{4-[5-(2-tert-butylpyridin-4-yl)thiophen-3-yl]-3-chlorobenzoyl}-1λ^6,4-thiomorpholine-1,1-dione] |  | 
8 | 0.71 µM |  | CC(C)(C)c1cc(-c2cc(-c3ccc(C(=O)N4CCC[C@@H](N)C4)cc3Cl)cs2)ccn1 [Compound 21a, (R)-(3-aminopiperidin-1-yl)(4-(5-(2-(tert-butyl)pyridin-4-yl)thiophen-3-yl)-3-chlorophenyl)methanone] | > 10 µM | 

Continued, compound first:

Row | Structure (SMILES) | IC50 [1, 3] | IC50 [1, 4] | IC50 at 24 h [2] | other results
9 | CC(C)(C)OC(=O)NC1CCCN(C(=O)c2ccc(-c3csc(-c4ccnc(C(C)(C)C)c4)c3)c(Cl)c2)C1 (racemic) [Compound 19, tert-butyl N-(1-{4-[5-(2-tert-butylpyridin-4-yl)thiophen-3-yl]-3-chlorobenzoyl}piperidin-3-yl)carbamate] | 0.25 µM |  | > 3 µM | 
10 | CC(C)(C)c1cc(-c2cc(-c3ccc(C(=O)N4CCCC(N)C4)cc3Cl)cs2)ccn1 (racemic) [Compound 21, 1-{4-[5-(2-tert-butylpyridin-4-yl)thiophen-3-yl]-3-chlorobenzoyl}piperidin-3-amine] | > 1 µM |  | > 3 µM | 
11 | CC(=O)NC1CCCN(C(=O)c2ccc(-c3csc(-c4ccnc(C(C)(C)C)c4)c3)c(Cl)c2)C1 (racemic) [Compound 32, N-[1-[4-[5-(2-tert-butyl-4-pyridyl)-3-thienyl]-3-chloro-benzoyl]-3-piperidyl]acetamide] |  |  | > 10 µM | IC50 ([1]; 24 h, read-out: SREBP2 Cleavage (IC50 μM) 24 h): 0.81 µM
12 | CC1(N)CCCN(C(=O)c2ccc(-c3cc(-c4ccnc(C(C)(C)C)c4)cs3)c(Cl)c2)C1 (single isomer, unassigned) [Compound 95a] |  |  | > 10 µM | IC50 ([1]; 24 h treatment, HepG2_LSSprom cells, read-out: SREBP2 Cleavage (IC50 μM) 24 h): 0.26 µM
13 | CC(C)(C)c1cc(-c2cc(-c3ccc(C(=O)NC4CCC4)cc3Cl)cs2)ccn1 [Compound 8, 4-[5-(2-tert-butylpyridin-4-yl)thiophen-3-yl]-3-chloro-N-cyclobutylbenzamide] | > 3 µM |  | > 3 µM | 
14 | CN1CCN(C(=O)c2ccc(-c3csc(-c4ccnc(C(C)(C)C)c4)c3)c(Cl)c2)CC1 [Compound 10, 1-{4-[5-(2-tert-butylpyridin-4-yl)thiophen-3-yl]-3-chlorobenzoyl}-4-methylpiperazine] | > 3 µM |  |  | 
15 | CC(C)(C)c1cc(-c2cc(-c3ccc(C(=O)N4CCCCC4)cc3Cl)cs2)ccn1 [Compound 11, 2-tert-butyl-4-{4-[2-chloro-4-(piperidine-1-carbonyl)phenyl]thiophen-2-yl}pyridine] | 0.3 µM | < 1 µM |  | IC50 at 6 h [2]: > 10 µM
16 | CC(C)(C)c1cc(-c2cc(-c3ccc(C(=O)N4CCC(F)(F)C4)cc3Cl)cs2)ccn1 [Compound 12, 2-tert-butyl-4-{4-[2-chloro-4-(3,3-difluoropyrrolidine-1-carbonyl)phenyl]thiophen-2-yl}pyridine] | 0.5 µM | > 10 µM |  | IC50 at 6 h [2]: > 10 µM
17 | CC(C)(C)c1cc(-c2cc(-c3ccc(C(=O)N4CCC(F)(F)CC4)cc3Cl)cs2)ccn1 [Compound 13, 2-tert-butyl-4-{4-[2-chloro-4-(4,4-difluoropiperidine-1-carbonyl)phenyl]thiophen-2-yl}pyridine] | 0.54 µM | > 10 µM |  | IC50 at 6 h [2]: > 10 µM
18 | Cc1sc(-c2ccnc(C(C)(C)C)c2)cc1-c1ccc(C(=O)N2CCCCC2)cc1Cl [Compound 16, 2-tert-butyl-4-{4-[2-chloro-4-(piperidine-1-carbonyl)phenyl]-5-methylthiophen-2-yl}pyridine] | 0.81 µM |  | > 3 µM | 
19 | O=C(c1ccc(-c2csc(-c3ccnc(N4CCCCC4)c3)n2)c(Cl)c1)N1CCOCC1 [Compound 17, 4-(3-chloro-4-{2-[2-(piperidin-1-yl)pyridin-4-yl]-1,3-thiazol-4-yl}benzoyl) morpholine] | > 3 µM | > 3 µM |  | 
20 | CC(O)CNC(=O)c1ccc(-c2csc(-c3ccnc(N4CCCCC4)c3)n2)c(Cl)c1 (stereo not drawn) [Compound 18, 3-chloro-N-(2-hydroxypropyl)-4-{2-[2-(piperidin-1-yl)pyridin-4-yl]-1,3-thiazol-4-yl}benzamide] | > 3 µM | > 3 µM |  | 
21 | CC(C)(C)OC(=O)N[C@@H]1CCCN(C(=O)c2ccc(-c3csc(-c4ccnc(C(C)(C)C)c4)c3)c(Cl)c2)C1 [Compound 19a, tert-butyl (R)-(1-(4-(5-(2-(tert-butyl)pyridin-4-yl)thiophen-3-yl)-3-chlorobenzoyl)piperidin-3-yl)carbamate] | 0.069 µM |  | > 10 µM | 
22 | CC(C)(C)OC(=O)N[C@H]1CCCN(C(=O)c2ccc(-c3csc(-c4ccnc(C(C)(C)C)c4)c3)c(Cl)c2)C1 [Compound 19b, tert-butyl (S)-(1-(4-(5-(2-(tert-butyl)pyridin-4-yl)thiophen-3-yl)-3-chlorobenzoyl)piperidin-3-yl)carbamate] | 0.22 µM |  | > 10 µM | 
23 | CC(C)(C)c1cc(-c2cc(-c3ccc(C(=O)N4CCC[C@H](N)C4)cc3Cl)cs2)ccn1 [Compound 21b, (S)-(3-aminopiperidin-1-yl)(4-(5-(2-(tert-butyl)pyridin-4-yl)thiophen-3-yl)-3-chlorophenyl)methanone] | > 3 µM |  | > 10 µM | 
